Experimental data as given in ChEMBL document CHEMBL1127848, “Three-dimensional quantitative structure-activity relationship of human immunodeficiency virus (I) protease inhibitors. 2. Predictive power using limited exploration of alternate binding modes” (J Med Chem, 1994).

Molecular target: Human immunodeficiency virus type 1 protease (Human immunodeficiency virus 1, UniProt Q72874)
Experiment: Inhibitory activity against HIV-1 Protease

| Structure (SMILES) | IC50 [nM] |
| --- | --- |
| CC[C@H](C)[C@H](NC(=O)[C@H](C(C)C)[C@@H](O)[C@H](O)[C@H](CC1CCCCC1)NC(=O)C1CCCCC1)C(=O)NCc1ccccn1 | 49.5 |
| CCCCNC(=O)N(CC(C)C)CC(O)[C@H](Cc1ccccc1)NC(=O)[C@H](CC(N)=O)NC(=O)c1ccc2ccccc2n1 (stereo not given in full) | 126 |
| CC(C)[C@@H](C(=O)N[C@H]1Cc2ccccc2[C@H]1O)[C@@H](O)[C@H](O)[C@H](CC1CCCCC1)NC(=O)c1ncccc1OCOc1ccccc1 | 540 |
| C[C@H](c1ccccc1)N(CC(O)[C@H](Cc1ccccc1)NC(=O)[C@H](CC(N)=O)NC(=O)OCc1ccccc1)C(=O)NC(C)(C)C (stereo not given in full) | 6500 |
| CC(C)(C)NC(=O)N(Cc1ccncc1)CC(O)[C@H](Cc1ccccc1)NC(=O)[C@H](CC(N)=O)NC(=O)OCc1ccccc1 (stereo not given in full) | 105 |
| CC(C)CCN(CC(O)[C@H](Cc1ccccc1)NC(=O)[C@H](CC(N)=O)NC(=O)OCc1ccccc1)C(=O)NC(C)(C)C (stereo not given in full) | 13 |
| CCNC(=O)N(CC(C)C)CC(O)[C@H](Cc1ccccc1)NC(=O)[C@H](CC(N)=O)NC(=O)OCc1ccccc1 (stereo not given in full) | 330 |
| CCCCNC(=O)N(CC(C)C)CC(O)[C@H](Cc1ccccc1)NC(=O)[C@H](CC(N)=O)NC(=O)OCc1ccccc1 (stereo not given in full) | 942 |
| CNC(=O)N(CC(C)C)CC(O)[C@H](Cc1ccccc1)NC(=O)[C@H](CC(N)=O)NC(=O)OCc1ccccc1 (stereo not given in full) | 1500 |
| CC(c1ccccc1)N(CC(O)[C@H](Cc1ccccc1)NC(=O)[C@H](CC(N)=O)NC(=O)OCc1ccccc1)C(=O)NC(C)(C)C (stereo not given in full) | 5090 |
| CC(C)CN(CC(O)[C@H](Cc1ccccc1)NC(=O)[C@H](CC(N)=O)NC(=O)OCc1ccccc1)C(=O)NC(C)C (stereo not given in full) | 260 |
| CC(C)[C@@H](C(=O)N[C@H]1Cc2ccccc2[C@H]1O)[C@@H](O)[C@H](O)[C@H](CC1CCCCC1)NC(=O)c1ccccc1 | 36 |
| CC(C)CN(CC(O)[C@H](Cc1ccccc1)NC(=O)[C@H](CC(N)=O)NC(=O)OCc1ccccc1)C(=O)NC(C)(C)C (stereo not given in full) | 35 |

Continued, values first:

| IC50 [nM] | Structure (SMILES) |
| --- | --- |
| 315 | CC[C@H](C)[C@H](NC(=O)[C@H](C(C)C)[C@@H](O)[C@H](O)[C@H](CC1CCCCC1)NC(=O)c1ncccc1OCSc1ccccc1)C(=O)NCc1nc2ccccc2[nH]1 |
| 11.2 | CC[C@H](C)[C@H](NC(=O)[C@H](C(C)C)[C@@H](O)[C@H](O)[C@H](CC1CCCCC1)NC(=O)c1ccccc1OCSc1ccccc1)C(=O)NCc1nc2ccccc2[nH]1 |
| 540 | CC[C@H](C)[C@H](NC(=O)[C@H](C(C)C)C(O)[C@H](O)[C@H](CC1CCCCC1)NC(=O)c1ncccc1OCOc1ccccc1)C(=O)NCc1nc2ccccc2[nH]1 (stereo not given in full) |
| 18 | CC[C@H](C)[C@H](NC(=O)[C@H](C(C)C)C(O)[C@H](O)[C@H](CC1CCCCC1)NC(=O)c1ccccc1OCOc1ccccc1)C(=O)NCc1nc2ccccc2[nH]1 (stereo not given in full) |
| 108 | CC[C@H](C)[C@H](NC(=O)[C@H](C(C)C)[C@@H](O)[C@H](O)[C@H](CC1CCCCC1)NC(=O)c1cccc(C)c1OCOc1ccccc1)C(=O)NCc1nc2ccccc2[nH]1 |
| 80.9 | CC[C@H](C)[C@H](NC(=O)[C@H](C(C)C)[C@@H](O)[C@H](O)[C@H](CC1CCCCC1)NC(=O)c1ccccc1)C(=O)NCc1nc2ccccc2[nH]1 |
| 19 | CC(C)(C)NC(=O)N(Cc1ccccc1)CC(O)[C@H](Cc1ccccc1)NC(=O)[C@H](CC(N)=O)NC(=O)OCc1ccccc1 (stereo not given in full) |
| 450 | CC(C)[C@@H](C(=O)N[C@H]1Cc2ccccc2[C@H]1O)[C@@H](O)[C@H](O)[C@H](CC1CCCCC1)NC(=O)c1ccccc1OCSc1ccccc1 |
| 5 | CC(C)(C)NC(=O)N(CC(O)[C@H](Cc1ccccc1)NC(=O)[C@H](CC(N)=O)NC(=O)c1ccc2ccccc2n1)C1CCCCC1 (stereo not given in full) |
| 6.01 | CC(C)CN(CC(O)[C@H](Cc1ccccc1)NC(=O)[C@H](CC(N)=O)NC(=O)c1ccc2ccccc2n1)C(=O)NC(C)(C)C (stereo not given in full) |
| 2400 | CC(C)[C@@H](C(=O)N[C@H]1Cc2ccccc2[C@H]1O)[C@@H](O)[C@H](O)[C@H](CC1CCCCC1)NC(=O)c1ncccc1OCSc1ccccc1 |
| 3 | CC(C)CCN(CC(O)[C@H](Cc1ccccc1)NC(=O)[C@H](CC(N)=O)NC(=O)c1ccc2ccccc2n1)C(=O)NC(C)(C)C (stereo not given in full) |
| 3 | CC(C)(C)NC(=O)N(Cc1ccccc1)CC(O)[C@H](Cc1ccccc1)NC(=O)[C@H](CC(N)=O)NC(=O)c1ccc2ccccc2n1 (stereo not given in full) |
| 29 | CC(C)(C)NC(=O)N(CC(O)[C@H](Cc1ccccc1)NC(=O)[C@H](CC(N)=O)NC(=O)OCc1ccccc1)C1CCCCC1 (stereo not given in full) |
| 19 | CC(C)(C)NC(=O)N(Cc1ccncc1)CC(O)[C@H](Cc1ccccc1)NC(=O)[C@H](CC(N)=O)NC(=O)c1ccc2ccccc2n1 (stereo not given in full) |
| 543 | CCCNC(=O)N(CC(C)C)CC(O)[C@H](Cc1ccccc1)NC(=O)[C@H](CC(N)=O)NC(=O)OCc1ccccc1 (stereo not given in full) |
| 540 | CC(C)[C@@H](C(=O)N[C@H]1Cc2ccccc2[C@H]1O)[C@@H](O)[C@H](O)[C@H](CC1CCCCC1)NC(=O)c1ccccc1OCOc1ccccc1 |
